Patent US9815796B2 (Merck Sharp & Dohme Corp., priority 2013, dated 2017)
Like-named read-outs stand apart in the source and are kept apart here.

Assays:
Rhesus PDE2A3 = Rhesus PDE2A3 (Macaca mulatta, UniProt B3VTJ2); experiment: PDE2 fluorescence polarization (IMAP FP) inhibition assay, rhesus enzyme; type: biochemical, rhesus macaque
Outline: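 IMAP FP (mP from parallel and perpendicular fluorescence against substrate-only control) was read ≥1 h after adding binding reagent. The preceding 60 min room-temperature reaction contained FAM-cAMP (50 nM) and cGMP (1 uM) in pH 7.2 Tris buffer with MgCl2 and DTT. Enzyme was supernatant of sonicated AD293 cells expressing rhesus PDE2A3; compounds were 3-fold titrated, DMSO 1% final.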

human PDE2A1 = human PDE2A1 (Homo sapiens (Human), UniProt O00408); experiment: IMAP FP PDE selectivity panel, human PDE2A1; type: biochemical
Chain of human PDE2A1 (O00408 other isoform, or with tags, fused parts or gaps): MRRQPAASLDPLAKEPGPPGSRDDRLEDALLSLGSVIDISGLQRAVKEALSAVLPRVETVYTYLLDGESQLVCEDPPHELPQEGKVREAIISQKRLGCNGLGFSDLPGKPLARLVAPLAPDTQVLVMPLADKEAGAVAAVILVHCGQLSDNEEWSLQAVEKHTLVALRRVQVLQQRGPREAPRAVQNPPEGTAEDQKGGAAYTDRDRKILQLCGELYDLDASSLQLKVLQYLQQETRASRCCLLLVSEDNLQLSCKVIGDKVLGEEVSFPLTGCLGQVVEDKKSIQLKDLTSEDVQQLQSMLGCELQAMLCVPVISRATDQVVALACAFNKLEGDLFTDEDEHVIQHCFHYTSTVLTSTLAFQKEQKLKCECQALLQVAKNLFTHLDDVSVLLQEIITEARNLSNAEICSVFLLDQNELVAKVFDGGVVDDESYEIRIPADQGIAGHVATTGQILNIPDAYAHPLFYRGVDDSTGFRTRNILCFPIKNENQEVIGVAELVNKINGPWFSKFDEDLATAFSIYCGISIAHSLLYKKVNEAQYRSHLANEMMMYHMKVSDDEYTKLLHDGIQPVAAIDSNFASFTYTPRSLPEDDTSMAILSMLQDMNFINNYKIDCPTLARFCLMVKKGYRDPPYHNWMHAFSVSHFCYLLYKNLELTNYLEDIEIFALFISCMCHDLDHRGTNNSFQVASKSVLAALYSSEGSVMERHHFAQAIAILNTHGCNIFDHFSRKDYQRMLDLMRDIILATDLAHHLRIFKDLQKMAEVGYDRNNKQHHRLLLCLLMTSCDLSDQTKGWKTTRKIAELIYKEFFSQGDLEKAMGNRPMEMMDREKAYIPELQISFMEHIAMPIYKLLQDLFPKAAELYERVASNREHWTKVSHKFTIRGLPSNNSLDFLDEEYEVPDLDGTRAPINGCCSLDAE
Outline: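 IMAP FP format: substrate 50 nM FAM-cAMP plus 1000 nM cGMP, enzyme (insect-cell GST-tagged human PDE2A1) at ~20% conversion, 60 min reaction at room temperature. Apparent inhibition constants calculated from parallel/perpendicular fluorescence with KM 10,000 nM.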

[1] = Rhesus PDE2, Lab A, read-out: Rhesus PDE2 Ki (nM) - Lab A
[2] = Rhesus PDE2, Lab B, read-out: Rhesus PDE2 Ki (nM) - Lab B
[3] = Human PDE2, Lab A, read-out: Human PDE2 Ki (nM) - Lab A
[4] = Human PDE2, Lab B, read-out: Human PDE2 Ki (nM) - Lab B

Chain of Rhesus PDE2A3 (B3VTJ2 1-941): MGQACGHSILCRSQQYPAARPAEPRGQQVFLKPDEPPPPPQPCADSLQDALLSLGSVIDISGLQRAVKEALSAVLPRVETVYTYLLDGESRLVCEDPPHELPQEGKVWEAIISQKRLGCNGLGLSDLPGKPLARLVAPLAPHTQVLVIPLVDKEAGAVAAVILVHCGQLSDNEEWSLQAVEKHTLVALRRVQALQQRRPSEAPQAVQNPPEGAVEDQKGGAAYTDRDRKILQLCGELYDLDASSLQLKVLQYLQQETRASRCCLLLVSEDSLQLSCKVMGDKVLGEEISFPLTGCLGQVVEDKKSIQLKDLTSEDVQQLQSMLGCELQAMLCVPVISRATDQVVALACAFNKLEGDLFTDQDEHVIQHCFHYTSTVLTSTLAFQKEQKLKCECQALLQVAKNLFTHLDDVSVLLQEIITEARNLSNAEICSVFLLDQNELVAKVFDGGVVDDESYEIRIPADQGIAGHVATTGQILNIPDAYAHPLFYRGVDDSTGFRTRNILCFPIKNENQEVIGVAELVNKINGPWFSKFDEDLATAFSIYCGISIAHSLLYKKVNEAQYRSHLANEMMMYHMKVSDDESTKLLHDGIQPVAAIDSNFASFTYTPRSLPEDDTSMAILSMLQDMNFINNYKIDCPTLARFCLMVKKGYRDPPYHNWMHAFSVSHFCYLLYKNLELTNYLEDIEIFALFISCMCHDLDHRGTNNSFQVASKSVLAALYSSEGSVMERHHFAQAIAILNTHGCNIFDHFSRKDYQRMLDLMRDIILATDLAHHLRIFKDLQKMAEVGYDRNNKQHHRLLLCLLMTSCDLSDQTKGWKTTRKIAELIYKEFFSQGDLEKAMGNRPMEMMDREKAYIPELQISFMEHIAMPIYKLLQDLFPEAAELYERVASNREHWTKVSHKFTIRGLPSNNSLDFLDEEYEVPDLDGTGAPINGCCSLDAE

Compound | Ki (Rhesus PDE2A3; [1]) [nM] | Ki (Rhesus PDE2A3; [2]) [nM] | Ki (human PDE2A1; [3]) [nM] | Ki (human PDE2A1; [4]) [nM]
Cc1nc(C(=O)N[C@H](C)c2ccc(OC(F)(F)F)c(F)c2)cc(=O)[nH]1 [Example 22, N-{(1R)-1-[3-fluoro-4-(trifluoromethoxy)phenyl]ethyl}-2-methyl-6-oxo-1,6-dihydropyrimidine-4-carboxamide] | 13 | 14 | 8.6 | 14
C[C@@H](O)[C@@H](NC(=O)c1cc(=O)[nH]c(-c2ccccc2)n1)c1ccc(C(F)(F)F)cc1 [Example 392, N-{(1S,2R)-2-hydroxy-1-[4-(trifluoromethyl)phenyl]propyl}-6-oxo-2-phenyl-1,6-dihydropyrimidine-4-carboxamide] |  | 5.5 |  | 3.3
COc1cc(OC(F)(F)F)ccc1C(C)NC(=O)c1cc(=O)[nH]c(-c2ccccc2)n1 (stereo not shown) [Example 187, N-{1-[2-methoxy-4-(trifluoromethoxy)phenyl]ethyl}-6-oxo-2-phenyl-1,6-dihydropyrimidine-4-carboxamide] | 4.5 |  | 3.1 | 
CC[C@@H](NC(=O)c1cc(=O)[nH]c(-c2ncccn2)n1)c1ccc(OC(F)(F)F)c(F)c1 [Example 89, N-{(1R)-1-[3-fluoro-4-(trifluoromethoxy)phenyl]propyl}-6-oxo-1,6-dihydro-2,2′-bipyrimidine-4-carboxamide] | 6.4 | 9.3 |  | 9.8
Cc1nc(C(=O)NC(C)(C)c2ccc(C(F)(F)F)cc2)cc(=O)[nH]1 [Example 272, 2-methyl-N-{1-methyl-1-[4-(trifluoromethyl)phenyl]ethyl}-6-oxo-1,6-dihydropyrimidine-4-carboxamide] | 42 |  | 40 | 71
O=C(N[C@@H](c1ccc(SC(F)(F)F)cc1)C1CC1)c1cc(=O)[nH]c(-c2ncccn2)n1 [Example 95, N-[(R)-cyclopropyl{4-[(trifluoromethyl)sulfanyl]phenyl}methyl]-6-oxo-1,6-dihydro-2,2′-bipyrimidine-4-carboxamide] | 7.4 |  | 3.1 | 
CC(C)(NC(=O)c1cc(=O)[nH]c(C2CC2)n1)c1ccc(OC(F)(F)F)cc1 [Example 295, 2-cyclopropyl-N-{1-methyl-1-[4-(trifluoromethoxy)phenyl]ethyl}-6-oxo-1,6-dihydropyrimidine-4-carboxamide] | 127 |  | 77 | 
CC[C@@H](NC(=O)c1cc(=O)[nH]c(C2CC2)n1)c1ccc(S(F)(F)(F)(F)F)cc1 [Example 242, 2-cyclopropyl-6-oxo-N-{(1R)-1-[4-(pentafluoro-λ^6-sulfanyl)phenyl]propyl}-1,6-dihydropyrimidine-4-carboxamide] | 5 | 10 |  | 9.2
Cc1nc(C(=O)NC2(c3ccc(C(F)(F)F)c(F)c3)CC2)cc(=O)[nH]1 [Example 44, N-{1-[3-fluoro-4-(trifluoromethyl)phenyl]cyclopropyl}-2-methyl-6-oxo-1,6-dihydropyrimidine-4-carboxamide] | 17 | 16 | 10 | 16
CCc1nc(C(=O)N[C@H](C)c2ccc(C(F)(F)F)cc2)c(CC)c(=O)[nH]1 [Example 333, (R)-2,5-diethyl-6-oxo-N-(1-(4-(trifluoromethyl)phenyl)ethyl)-1,6-dihydropyrimidine-4-carboxamide] | 89 |  | 80 | 
C[C@@H](NC(=O)c1cc(=O)[nH]c(-c2ncccn2)n1)c1ccc(C(F)(F)F)c(Cl)c1 [Example 110, N-{(1R)-1-[3-chloro-4-(trifluoromethyl)phenyl]ethyl}-6-pxo-1,6-dihydro-2,2′-bipyrimidine-4-carboxamide] | 12 |  | 7.2 | 
Cc1nc(C(=O)NC(c2ccc(C(F)(F)F)cc2)c2nnn[nH]2)cc(=O)[nH]1 (stereo not shown) [Example 336, 2-Methyl-6-oxo-N-{1H-tetrazol-5-yl[4-(trifluoromethyl)phenyl]methyl}-1,6-dihydropyrimidine-4-carboxamide] | 60 |  | 59 | 
